pIC50: −log10 of the molar value.
What follows are molecules tested against T1, Jak3 (Homo sapiens, UniProt P52333) (assay: In vitro Jak3 kinase activity measured by trFRET). Conditions: Jak3 enzyme aa 811-1103, 0.001 mM ATP.
T1 construct: Jak3 enzyme (aa 811-1103); expressed in SF9 cells as a GST fusion; GST; made in house; host or cells: SF9 insect cells
Format: biochemical
Description: In Vitro Jak3 Kinase Activity Measured by Time-Resolved Fluorescence Resonance Energy Transfer (trFRET)

T1 sequence (P52333 811-1103): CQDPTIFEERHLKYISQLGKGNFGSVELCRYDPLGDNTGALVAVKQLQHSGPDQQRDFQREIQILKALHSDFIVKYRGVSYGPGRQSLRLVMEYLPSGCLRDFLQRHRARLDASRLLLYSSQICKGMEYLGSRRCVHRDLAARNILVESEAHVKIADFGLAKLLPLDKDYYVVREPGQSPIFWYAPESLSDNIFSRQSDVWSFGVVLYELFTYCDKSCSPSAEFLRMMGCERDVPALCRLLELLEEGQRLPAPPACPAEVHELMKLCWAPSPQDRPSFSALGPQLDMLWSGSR

SMILES	pIC50
CC(C)c1nc(C2CCCN(C(=O)OCc3ccccc3)C2)c2c3cc[nH]c3ncn12 (stereo not shown) [Example #3, Benzyl 3-(3-isopropyl-7H-imidazo[1,5-c]pyrrolo[3,2-e]pyrimidin-1-yl)piperidine-1-carboxylate]	5.00 to 6.00
N#CC1(C(=O)N2CCC[C@H](c3nnn4cnc5[nH]ccc5c34)C2)CC1 (single isomer, unassigned) [compound 5]	5.00 to 6.00
c1cc2c(ncn3nnc(C4CCCCC4)c23)[nH]1 [Example #2, 1-Cyclohexyl-7H-pyrrolo[3,2-e][1,2,3]triazolo[1,5-c]pyrimidine]	5.00 to 6.00
N#CC1(C(=O)N2CCC[C@@H](c3nnn4cnc5[nH]ccc5c34)C2)CC1 (single isomer, unassigned) [compound 6]	6.00 to 7.00
N#CC1(C(=O)N2CCCC(c3nnn4cnc5[nH]ccc5c34)C2)CC1 (racemic) [Examples #5 and #6, Step E, 1-(3-(7H-Pyrrolo[3,2-e][1,2,3]triazolo[1,5-c]pyrimidin-1-yl)piperidine-1-carbonyl)cyclopropanecarbonitrile]	5.00 to 6.00
O=C(OCc1ccccc1)N1CCCC(c2ncn3cnc4[nH]ccc4c23)C1 (stereo not shown) [Example #4, Benzyl 3-(7H-imidazo[1,5-c]pyrrolo[3,2-e]pyrimidin-1-yl)piperidine-1-carboxylate]	5.00 to 6.00

What follows are molecules tested against T2, Syk (Homo sapiens, UniProt P43405) (assay: In vitro Syk kinase activity measured by trFRET). Conditions: Syk catalytic domain aa356-635, 0.001 mM ATP.
T2 construct: Syk catalytic domain (aa356-635, purified in-house at the Abbott Bioresearch Center); His tag (C); made in house; host or cells: SF9 insect cells
Format: biochemical
Experimental: In Vitro Syk Kinase Activity Measured by Time-Resolved Fluorescence Resonance Energy Transfer (trFRET)
0.3 nM Syk catalytic domain (aa356-635, purified in-house at the Abbott Bioresearch Center) was mixed with 0.1 μM peptide substrate (biotin-TYR1, Sequence: Biotin-(Ahx)-[…]-COOH) at varying concentrations of inhibitor in reaction buffer: 50 mM MOPSO pH 6.5, 10 mM MgCl2, 2 mM MnCl2, 2.5 mM DTT, 0.01% BSA, 0.1 mM Na3VO4 and 0.001 mM ATP. After about 60 min incubation at rt, the reaction was quenched by addition of EDTA (final concentration: 100 mM) and developed by addition of revelation reagents (final approximate concentrations: 30 mM HEPES pH 7.0, 0.06% BSA, 0.006% Tween-20, 0.24 M KF, 90 ng/mL PT66K (europium labeled anti-phosphotyrosine antibody cat #61T66KLB Cisbio, Bedford, Mass.) and 0.6 μg/mL SAXL (Phycolink streptavidin-allophycocyanin acceptor, cat #PJ52S, Prozyme, San Leandro, Calif.). The developed reaction was incubated in the dark either at about 4° C. for about 14 h or for about 60 min at rt, then read via a time-resolved fluorescence detector (Rubystar, BMG) using a 337 nm laser for excitation and emission wavelength of 665 nm. Within the linear range of the assay, the observed signal at 665 nm is directly related to phosphorylated product and used to calculate the IC50 values.

SMILES	pIC50
c1cc2c(ncn3cnc(C4CCCCC4)c23)[nH]1 [Example #1, 1-Cyclohexyl-7H-imidazo[1,5-c]pyrrolo[3,2-e]pyrimidine]	5.00 to 6.00
Brc1cnc2c3cc[nH]c3ncn12 [Example #10, Step D, 3-bromo-7H-imidazo[1,2-c]pyrrolo[3,2-e]pyrimidine]	< 5.00
CC(=O)N1CCCC(c2nc(-c3ccc(C(C)C)cc3)n3cnc4[nH]ccc4c23)C1 (stereo not shown) [Example #13, 1-(3-(3-(4-Isopropylphenyl)-7H-imidazo[1,5-c]pyrrolo[3,2-e]pyrimidin-1-yl)piperidin-1-yl)ethanone]	5.00 to 6.00
c1cc2c(ncn3nnc(C4CCCCC4)c23)[nH]1 [Example #2, 1-Cyclohexyl-7H-pyrrolo[3,2-e][1,2,3]triazolo[1,5-c]pyrimidine]	< 5.00
COc1ccc(-c2nnc3c4cc[nH]c4ncn23)cc1 [Example #8, 3-(4-Methoxyphenyl)-7H-pyrrolo[3,2-e][1,2,4]triazolo[4,3-c]pyrimidine]	< 5.00
c1cc(-c2cc3c(ncn4ccnc34)[nH]2)ccn1 [Example #12, 8-(Pyridin-4-yl)-7H-imidazo[1,2-c]pyrrolo[3,2-e]pyrimidine]	5.00 to 6.00
CS(=O)(=O)c1ccc(-c2nnc3c4cc[nH]c4ncn23)cc1 [Example #9, 3-(4-(Methylsulfonyl)phenyl)-7H-pyrrolo[3,2-e][1,2,4]triazolo[4,3-c]pyrimidine]	< 5.00
CCCNC(=O)c1ccc(Nc2nc3[nH]ccc3c3nccn23)cc1 [Example #7, 4-(7H-Imidazo[1,2-c]pyrrolo[3,2-e]pyrimidin-5-ylamino)-N-propylbenzamide]	< 5.00
c1cncc(-c2cn3cnc4[nH]ccc4c3n2)c1 [Example #11, 2-(Pyridin-3-yl)-7H-imidazo[1,2-c]pyrrolo[3,2-e]pyrimidine]	5.00 to 6.00
CC(C)(O)c1ccc(-c2cnc3c4cc[nH]c4ncn23)cc1 [Example #10, 2-(4-(7H-Imidazo[1,2-c]pyrrolo[3,2-e]pyrimidin-3-yl)phenyl)propan-2-ol]	6.00 to 7.00

From patent US20120330012A1, “Novel Tricyclic Compounds” (ABBOTT LABORATORIES, priority 2011, published 2012)
